Assay results reported in patent US20110250266A1, “LIPOSOMAL SYSTEMS COMPRISING SPHINGOMYELIN” (Yissum Research Development Company of the Hebrew …, priority 2008, published 2011).
Values joined by “and” are separate entries in the source; they are usually repeats but may differ in a detail not shown here. Equal values may be shown once. Where a name gives a salt, the structure may show the parent alone.

Legend:
mouse = assay: Maximal tolerated dose of free BUP; type: in vivo
[1] = system: Mice (male Swiss-Webster); assay: Analgesic efficacy in mouse model (electrical stimulation of abdominal skin, vocalization threshold); type: in vivo; design: key: 1 = analgesia; 0 = no analgesia; 10 = partial analgesia
Experimental: Testing for analgesia was done by electrical stimulation of the skin directly overlying the abdomen at the site of injection using a current generator (model S48, Grass Instruments).
Mice (male Swiss-Webster, 26±3 gr) were tested prior to injection to determine the vocalization threshold than were injected with encapsulation BUP liposomes than determine analgesic duration (G. J. Grant et al, pharmaceutical research, vol 18, no. 3, 336-343, 2001).
In order to evaluate the effect of altering the volume and BUP concentration of the injection, in each group, three mice received 150 μL of the 2% formulation and 3 mice received 300 μL of a 1:1 diluted 2% formulation.
In these Tables, an numeric score of “1” denotes full analgesia, a numeric score of “0” was given when there was no analgesic effect, and a numeric value of “10” when there was partial analgesia.
As indicated above, the numerical score to the spreadsheet was introduced for the evaluation of the analgesic effect of various liposome preparations performance in vivo: For each time period (e.g. 4 hrs, 8 hrs etc) a numeric value of 1 was given if the anesthesia was complete; 10 or 0.5 was given when analgesia was partial (incomplete) and 0 for no anesthesia. The mean for each subgroup was calculated separately (i.e. 1% 300 μl, 2% 150 μg).

[2] = individual mice, Bup conc 0.25%, volume 150 ul, 0.375 mg Bup
[3] = individual mice, Bup conc 0.25%, volume 150 ul, 0.375 mg Bup, hydrochloride
[4] = individual mice, Bup conc 0.25%, volume 300 ul, 0.75 mg Bup
[5] = individual mice, Bup conc 0.25%, volume 300 ul, 0.75 mg Bup, hydrochloride
[6] = individual mice, Bup conc 0.50%, volume 150 ul, 0.75 mg Bup
[7] = individual mice, Bup conc 0.50%, volume 150 ul, 0.75 mg Bup, hydrochloride
[8] = mice, 0.25%, 150 ul, 0.375 mg Bup
[9] = mice, 0.25%, 150 ul, 0.375 mg Bup, hydrochloride
[10] = mice, 0.25%, 300 ul, 0.75 mg Bup
[11] = mice, 0.25%, 300 ul, 0.75 mg Bup, hydrochloride
[12] = mice, 0.50%, 150 ul, 0.75 mg Bup
[13] = mice, 0.50%, 150 ul, 0.75 mg Bup, hydrochloride

SMILES: CCCCN1CCCCC1C(=O)Nc1c(C)cccc1C (stereo not drawn) [Standard Bupivacaine, Bupivacaine hydrochloride]
- maximal tolerated dose, MTD (mouse): 0.75 mg/mouse
- Analgesic effect score at 15 min [1, 2]: 1
- Analgesic effect score at 30 min [1, 2]: 1
- Analgesic effect score at 45 min [1, 2]: 1
- Analgesic effect score at 60 min [1, 3]: 0 (5×) and 1 (2×) and 10
- Analgesic effect score at 75 min [1, 3]: 0 (7×) and 10
- Analgesic effect score at 90 min [1, 2]: 0
- Analgesic effect score at 15 min [1, 4]: 1
- Analgesic effect score at 30 min [1, 4]: 1
- Analgesic effect score at 45 min [1, 4]: 1
- Analgesic effect score at 60 min [1, 4]: 1
- Analgesic effect score at 75 min [1, 5]: 0 and 1 (7×)
- Analgesic effect score at 90 min [1, 5]: 0 and 1 (5×) and 10 (2×)
- Analgesic effect score at 105 min [1, 5]: 0 (5×) and 10 and 1 (2×)
- Analgesic effect score at 120 min ([1]; individual mice, Bup conc 0.25%, volume 300 ul, 0.75 mg Bup, 120 min, hydrochloride): 0 (7×) and 10
- Analgesic effect score at 135 min ([1]; individual mice, Bup conc 0.25%, volume 300 ul, 0.75 mg Bup, 135 min): 0
- Analgesic effect score at 15 min [1, 6]: 1
- Analgesic effect score at 30 min [1, 6]: 1
- Analgesic effect score at 45 min [1, 6]: 1
- Analgesic effect score at 60 min [1, 7]: 1 (7×) and 10
- Analgesic effect score at 75 min [1, 7]: 1 (6×) and 0 and 10
- Analgesic effect score at 90 min [1, 7]: 0 (4×) and 10 (2×) and 1 (2×)
- Analgesic effect score at 105 min [1, 6]: 0
- analgesia 15 min [1, 8]: 1
- analgesia 30 min [1, 8]: 1
- analgesia 45 min [1, 8]: 1
- analgesia 60 min [1, 9]: 0 and 1 and 10
- analgesia 75 min [1, 9]: 0 and 10
- analgesia 90 min [1, 8]: 0
- analgesia 15 min [1, 10]: 1
- analgesia 30 min [1, 10]: 1
- analgesia 45 min [1, 10]: 1
- analgesia 60 min [1, 10]: 1
- analgesia 75 min [1, 11]: 0 and 1
- analgesia 90 min [1, 11]: 0 and 1 and 10
- analgesia 105 min [1, 11]: 0 and 10 and 1
- analgesia 120 min ([1]; mice, 0.25%, 300 ul, 0.75 mg Bup, 120 min, hydrochloride): 0 and 10
- analgesia 135 min ([1]; mice, 0.25%, 300 ul, 0.75 mg Bup, 135 min): 0
- analgesia 15 min [1, 12]: 1
- analgesia 30 min [1, 12]: 1
- analgesia 45 min [1, 12]: 1
- analgesia 60 min [1, 13]: 1 and 10
- analgesia 75 min [1, 13]: 1 and 0 and 10
- analgesia 90 min [1, 13]: 0 and 10 and 1
- analgesia 105 min [1, 12]: 0
